The values that follow come from patent publication US11419875B2, “Compounds and compositions for treating hematological disorders” (Aurigene Discovery Technologies Limited, priority 2017, dated 2022).

pIC50: −log10 of the molar value.

The first series concerns MV4-11 cells. As to the kind of experiment: AML xenograft model MV4-11, in vivo tumor growth inhibition. The note with it: 100 mg/kg i.p. once daily, 21 days. Here is the method:
ND-2158 at 100 mpk was used as a control.
MV4-11 cells were grown in Iscove's Modified Dulbecco's medium supplemented with 10% FBS and 1% penicillin streptomycin. To establish tumors, 15×10^6 MV4-11 cells were injected subcutaneously in 200 μl of 1:1 HBSS and ECM gel into the right flank of the athymic nude mice. Animals were randomized based on tumor volumes. […] Treatments were initiated when the average tumor volume sizes were 333 mm^3. Tumor volumes were measured three times a week and body weights were monitored daily.
`NC(=O)[C@@H](O)C[C@H]1CCc2sc3ncnc(OC4CCC(N5CCOCC5)CC4)c3c21` (stereo partly shown) [ND-2158, reference compound]: the “tolerability (clinical signs, gross pathological changes)” value was “well tolerated without any treatment related clinical signs and gross pathological changes”; the tumor growth inhibition stood at 68%.

Staying with this series, now noted: all treatment groups, 21 days, FIG. 4.
In the case of `NC(=O)[C@@H](O)C[C@H]1CCc2sc3ncnc(OC4CCC(N5CCOCC5)CC4)c3c21` (stereo partly shown) [ND-2158, reference compound], the body weight result is “No body weight reduction was observed”.

A further series has as its system MV4-11 cells. As to the kind of experiment: MV4-11 CellTiter Glo cell viability/proliferation assay (Example 2). The format is cell-based. The note with it: Homo sapiens, 72 hours, CellTiter Glo, read-out: MV4-11 IC50. The procedure: The CellTiter Glo Luminescent cell viability assay is a highly sensitive homogenous assay to determine the number of viable cells in culture based on quantitation of ATP levels in metabolically active cells. Addition of CTG reagent results in cell lysis and generation of a luminescent signal proportional to the amount of ATP present. The amount of ATP is proportional to the number of cells present. The luminescence is measured using a multilabel reader capable of measuring luminescence. An increase or decrease in cell numbers results in a concomitant change in luminescene level, indicating the effect of the test material on cellular proliferation.
CellTiter-Glo buffer was thawed and equilibrated to room temperature. Lyophilized CellTiter-Glo substrate was brought to room temperature. CTG reagent is prepared by mixing the CellTiter-Glo buffer (Promega Cat #G7572) into an amber bottle containing CellTiter-Glo substrate to reconstitute the lyophilized enzyme/substrate mixture. Both Buffer and the lyophilized substrate are supplied with the kit.
Add 1% Penicillin Streptomycin and 10% FBS to commercially available liquid IMDM (Iscove's Modified Dulbecco's Medium, Invitrogen Cat #12440046).
1. MV4-11 cells were counted and re-suspended to a density of 0.1×10^6 cells/ml in complete IMDM medium. 95 μL of this cell suspension was added per well of a 96-well plate (black plate with clear bottom) to seed ˜0.1×10^5 cells per well. The plates were incubated at 37° C. under a humidified atmosphere of 5% CO2 for ˜2 hours before compound addition. 2. Test compounds were dissolved in 100% DMSO to generate a 2/6/10/20 mM stock solution. A 200× concentration of the required final concentrations was prepared in DMSO. 10 μL of each concentration (200×) was then diluted in 90 μL of serum-free IMDM to prepare an intermediate concentration of 20× in medium. The DMSO concentration in this step was 10% (Intermediate dilution). 5 μL of each intermediate dilution was then added in triplicates to cells previously seeded in 96-well plate. The final DMSO concentration was 0.5% in the experimental wells. Cells treated with 0.5% DMSO served as a positive control. 100 μL of complete IMDM medium served as media blank for data analysis. 200 μL of 1×PBS was added in all corner wells of the assay plate to avoid evaporation of media in experimental wells. Plates were then incubated for 72 hours in an incubator with 5% CO2 at 37° C. 3. To terminate the assay, 50 μL of CTG reagent was added to each well and the plate was incubated at room temperature for 15 minutes on a shaker. The plate was read using the luminescence mode on a multilabel reader capable of measuring luminescence. The luminescence values were plotted against respective concentrations of the test item using GraphPad Prism to calculate the IC50 value for the test item. Percent Inhibition is Calculated as Follows: […]
Positive control wells contained cells, IMDM medium and 0.5% DMSO. Blank control wells contained IMDM medium alone.
In general terms: ATP-based viability assays read luminescence as a measure of living cells.
In general, pIC50 refers to the IC50 on a negative log10 scale, so that one unit is a factor of ten. With `Nc1ccc(-c2cccc(C(=O)Nc3cc4oc(N5CCOCC5)nc4nc3C3CC3)n2)cn1`, the pIC50 is under 6.30.
For the compound `O=C(Nc1cc2oc(N3CCCCC3)nc2nc1N1CCCCC1)c1cccc(-c2cn[nH]c2)n1`, the pIC50 was over 7.30.
With `O=C(Nc1cc2oc(N3CCOCC3)nc2nc1N1CCCCC1)c1cccc(-c2cn[nH]c2)n1`, the pIC50 is over 7.30.
Still for that read-out and setting: with `Nc1ccc(-c2cccc(C(=O)Nc3cc4sc(N5CCOCC5)nc4cn3)n2)cn1` the figure was 6.30 to 7.30; with `Cc1cc(-c2nc(C(=O)Nc3cnc4nc(N5CCOCC5)sc4c3)co2)ccn1`, over 7.30; with `Nc1ccc(-c2cccc(C(=O)Nc3cnc4nc(N5CCOCC5)sc4c3)n2)cn1`, under 6.30.
Still for that read-out and setting: with `O=C(Nc1cc2sc(N3CCCCC3)nc2nc1N1CCCCC1)c1cccc(-c2cn[nH]c2)n1` the figure was 6.30 to 7.30; with `Cc1cc(-c2nc(C(=O)Nc3cc4oc(N5CCOCC5)nc4nc3N3CC[C@H](O)C3)co2)ccn1`, over 7.30; with `O=C(Nc1cc2oc(N3CCOCC3)nc2nc1N1CCCCC1)c1cccc(N2CC[C@H](O)C2)n1`, under 6.30.
`Cn1cc(-c2cccc(C(=O)Nc3cc4sc(N5CCCCC5)nc4nc3N3CCCCC3)n2)cn1`: the pIC50 was over 7.30.
Regarding `Cn1cc(-c2cccc(C(=O)Nc3cc4sc(N5CCOCC5)nc4nc3N3CCCCC3)n2)cn1`, the pIC50 is over 7.30.
As to `N[C@H]1CCN(c2cccc(C(=O)Nc3cc4sc(N5CCOCC5)nc4nc3N3CCCCC3)n2)C1`, the pIC50 is under 6.30.
Take `O=C(Nc1cc2sc(N3CCOCC3)nc2nc1N1CCCCC1)c1cccc(N2CC[C@H](O)C2)n1`: the pIC50 was under 6.30.
For the compound `N[C@H]1CCN(c2cccc(C(=O)Nc3cc4sc(N5CCCCC5)nc4nc3N3CCCCC3)n2)C1`, the pIC50 is under 6.30.
In the case of `O=C(Nc1cc2sc(N3CCCCC3)nc2nc1N1CCCCC1)c1cccc(N2CC[C@H](O)C2)n1`, the pIC50 is under 6.30.
Still for that read-out and setting: with `Cc1cc(-c2nc(C(=O)Nc3cc4sc(N5CCOCC5)nc4nc3C3CC3)co2)ccn1` the figure was over 7.30.
As for `O=C(Nc1cc2sc(N3CCOCC3)nc2nc1N1CCCCC1)c1coc(N2CC[C@H](O)C2)n1`, the pIC50 was over 7.30.
Still for that read-out and setting: with `Cc1cc(-c2nc(C(=O)Nc3cc4sc(N5CCOCC5)nc4nc3N3CC[C@H](O)C3)co2)ccn1` the figure was over 7.30; with `O=C(Nc1cc2sc(N3CCOCC3)nc2nc1C1CC1)c1cccc(N2CC[C@H](O)C2)n1`, under 6.30.
Turning to `C[C@H](O)Cn1cc(-c2cccc(C(=O)Nc3cc4sc(N5CCOCC5)nc4nc3C3CC3)n2)cn1`, the pIC50 was over 7.30.
The same measure, in the same setting: as for `O=C(Nc1cc2sc(N3CCOCC3)nc2nc1N1CCC1)c1cccc(N2CC[C@H](O)C2)n1`, the figure is under 6.30.
On the same count and under the same terms, with `Cc1cc(-c2nc(C(=O)Nc3cc4sc(N5CCOCC5)nc4nc3N3CC[C@@H](O)C3)co2)ccn1` the figure was over 7.30.
On the same count and under the same terms, with `C[C@H](O)Cn1cc(-c2cccc(C(=O)Nc3cc4sc(N5CCOCC5)nc4nc3N3CCCCC3)n2)cn1` the figure was over 7.30; with `Cc1nn(C)c2cc(N3CCC(CO)CC3)c(NC(=O)c3coc(-c4ccnc(N)c4)n3)cc12`, over 7.30; with `Nc1ccc(-c2cccc(C(=O)Nc3cc4cn(C5CCCC5)nc4cc3N3CCOCC3)n2)cn1`, over 7.30.
With `Cc1cc(-c2nc(C(=O)Nc3cc4cn(C)nc4cc3C3CC3)co2)ccn1`, the pIC50 was over 7.30.
Turning to `Cc1ccc(C(=O)Nc2cc3cn(C)nc3cc2N2CCCCC2)nc1-c1ccc(N)nc1`, the pIC50 was over 7.30.
As for `Cc1ccc(C(=O)Nc2cc3cn(C)nc3cc2N2CCCCC2)nc1-c1cnn(C)c1`, the pIC50 was over 7.30.
Same read-out and setting: with `C[C@H](O)Cn1cc(-c2cccc(C(=O)Nc3cc4cn(C)nc4cc3N3CCCCC3)n2)cn1` the figure was over 7.30.
With `Cn1cc2cc(NC(=O)c3cccc(N4CC[C@@H](O)C4)n3)c(N3CCCCC3)cc2n1`, the pIC50 was under 6.30.
In the case of `Cn1cc2cc(NC(=O)c3cccc(N4CC[C@H](O)C4)n3)c(N3CCCCC3)cc2n1`, the pIC50 is 6.30 to 7.30.
On the same count and under the same terms, as for `Cn1cc2cc(NC(=O)c3cccc(N4CCC(O)C4)n3)c(N3CCCCC3)cc2n1` (stereo not shown), the figure is 6.30 to 7.30; as for `C[C@H](O)Cn1cc(-c2cccc(C(=O)Nc3cc4cn(C)nc4cc3C3CC3)n2)cn1`, over 7.30.
With `Cc1cc(-c2nc(C(=O)Nc3cc4oc(N5CCOCC5)nc4nc3N3CC[C@@H](O)C3)co2)ccn1` [drawing 32], the pIC50 is over 7.30.
